In one data set the target is human A2a receptor (Homo sapiens, UniProt P29274). Put plainly: Adenosine antagonistic activity, radioligand binding ([3H]CGS 21680). The conditions noted are these: [3H]CGS 21680 20 nM. The method, then:
(§1) Test 1: Adenosine Antagonistic Activity
(§2) The adenosine antagonistic activity [Ki (nM)] of the test compound was examined by radioligand binding techniques using 8-cyclopentyl-1,3-dipropylxanthine, [dipropyl-2,3-^3H(N)] ([^3H]DPCPX, 4.5 nM) for human A1 receptor and [^3H]CGS 21680 (20 nM) for human A2a receptor.

The next data set deals with ddY mice. The experiment in a line: Anticatalepsy activity in mouse (haloperidol-induced catalepsy, bar test). The class given is in vivo. The conditions noted are these: 3.2 mg/kg orally, ddY mice n=7; haloperidol 0.32 mg/kg i.p. 30 min after compound; measured 30 min after injection, up to 30 sec. The method, then:
Test 2: Anticatalepsy Activity in Mouse [I] Test Method
The test compound (3.2 mg/kg) was administered orally with ddY mice (n=7). Then, haloperidol (0.32 mg/kg) was injected intraperitoneally 30 min. after the administration of the compound. Thirty min. after the injection, the cataleptic responses of mice were measured. The forelimbs of each mouse were placed on a 3 cm high, 3 mm wide horizontal bar, and the duration of cataleptic posture was measured for up to 30 sec.

In another data set the target is T1, human A1 receptor (Homo sapiens, UniProt P30542).
T1 sequence (P30542 1-326): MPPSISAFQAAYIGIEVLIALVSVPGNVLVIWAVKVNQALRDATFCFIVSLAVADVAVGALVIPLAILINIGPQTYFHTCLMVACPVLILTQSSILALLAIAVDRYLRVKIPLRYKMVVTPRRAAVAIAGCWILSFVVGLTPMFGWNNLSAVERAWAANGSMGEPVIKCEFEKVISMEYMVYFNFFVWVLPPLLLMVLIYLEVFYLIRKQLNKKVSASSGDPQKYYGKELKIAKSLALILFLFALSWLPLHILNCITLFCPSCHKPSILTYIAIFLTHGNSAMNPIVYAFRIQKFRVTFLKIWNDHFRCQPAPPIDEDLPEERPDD
The experiment in a line: Adenosine antagonistic activity, radioligand binding ([3H]DPCPX). The conditions noted are these: [3H]DPCPX 4.5 nM. The method, then:
as §1, §2

The values below come from patent US7265120B2, “Pyrazine derivatives and pharmaceutical use thereof” (Astellas Pharma Inc., priority 2004, dated 2007).

Sequence of human A2a receptor (P29274 whole entry): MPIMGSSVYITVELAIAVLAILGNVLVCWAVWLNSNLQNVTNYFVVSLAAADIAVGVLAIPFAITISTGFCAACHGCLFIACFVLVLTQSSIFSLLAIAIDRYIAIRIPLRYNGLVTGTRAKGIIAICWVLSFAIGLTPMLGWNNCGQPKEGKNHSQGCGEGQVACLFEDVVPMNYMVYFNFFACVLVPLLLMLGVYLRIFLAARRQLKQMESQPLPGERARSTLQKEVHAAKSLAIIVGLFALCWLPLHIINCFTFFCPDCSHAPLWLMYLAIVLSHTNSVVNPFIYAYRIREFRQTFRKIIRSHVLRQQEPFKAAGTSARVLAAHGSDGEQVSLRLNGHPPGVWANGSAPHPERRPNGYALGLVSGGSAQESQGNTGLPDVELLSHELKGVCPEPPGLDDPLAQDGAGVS

In the case of `Cn1nc(-c2nc(-n3cccn3)c(N)nc2-c2ccccc2)ccc1=O` [Example 153, 6-[5-amino-3-phenyl-6-(1H-pyrazol-1-yl)-2-pyrazinyl]-2-methyl-3(2H)-pyridazinone], the melting point fell in the range of 187 to 189.5 °C. The compound further returned a Ki at human A2a receptor of 4.95 nM. The “Manifestation rate of Catalepsy (number of mouse)” value in the data set on ddY mice is given as 2/7. Also, at human A1 receptor, the affinity corresponds to a Ki of 18.9 nM.
The compound `CC(C)n1nc(-c2nc(OCc3ccccn3)c(N)nc2-c2ccccc2)ccc1=O` [Example 163, 6-[5-amino-3-phenyl-6-(2-pyridylmethoxy)-2-pyrazinyl]-2-isopropyl-3(2H)-pyridazinone] gave a melting point of 150 to 151 °C. The same compound had a Ki at human A2a receptor of 0.42 nM. Also, in the data set with ddY mice, the “Manifestation rate of Catalepsy (number of mouse)” value was 2/7. Further, at human A1 receptor, the Ki worked out at 1.35 nM.
The corresponding values for `CCCCOc1nc(-c2ccc(=O)n(C)n2)c(-c2ccccc2)nc1N` [Example 179, 6-(5-amino-6-butoxy-3-phenyl-2-pyrazinyl)-2-methyl-3(2H)-pyridazinone] are 143 to 144 °C, 1.57 nM, 1/7 and 16.4 nM.
For `Cn1nc(-c2nc(OCc3ccco3)c(N)nc2-c2ccccc2)ccc1=O` [Example 184, 6-[5-amino-6-(2-furylmethoxy)-3-phenyl-2-pyrazinyl]-2-methyl-3(2H)-pyridazinone] the same measures were 158 to 159.5 °C, 1.49 nM, 2/7 and 13.2 nM.
